In patent US7964736B2, “Phosphagen synthesis” (Nour Heart, Inc., priority 2004, dated 2011):
Where two headings read alike, the source gives them in different places.

Columns and labels:
[1] = test system: isolated rabbit hearts; conditions: cited from earlier work
[2] = test system: chopped whole brain; conditions: 0.5% in-vitro for 90 minutes; cited from earlier work
[3] = test system: isolated rabbit hearts; test: Isolated ischemic rabbit hearts; type: in vivo
[4] = test system: ischemic isolated rat hearts; conditions: cited from earlier work
[5] = test system: canine heart, regional warm ischemia (LAD); test: Regional warm ischemia (LAD), intact AMI model: coronary artery occlusion followed by reperfusion; type: in vivo; conditions: LAD for 1 hour, and 2 hours reperfusion
[6] = test system: heart (cardioprotection); test: Dose-response study of cardioprotective effect; type: in vivo
[7] = test system: rat hearts, normothermic cardioplegic arrest; conditions: ischemia time 40 min; cited from earlier work
[8] = test system: canine heart, hypothermic cardioplegic arrest; conditions: cited from earlier work; for results (restoration of cardiac function): canine
[9] = test system: rat heart, global warm ischemia; conditions: ischemia time 7, 9, 10 min; cited from earlier work
[10] = test system: canine heart, regional warm ischemia (LAD); conditions: cited from earlier work
[11] = test system: dog hearts; test: Inotropic or chronotropic effect on dog hearts; type: in vivo
From the text: As described above, although the mechanism by which CCr preserves the heart during ischemia and restores cardiac function during reperfusion is not fully understood, it is likely to be related to preservation of ATP. […] Since the breakdown of ATP is the immediate source of energy for contraction, and that contractile performance decreases precipitously and ceases when only 20% of ATP is depleted, the reported CCr preservation of over 85% of ATP (loss of only 15%) in ischemic myocardium is likely the major contributor to the observed restoration of post-ischemic myocardial contractility (see Allam M E, et al., Surg. Forum XLI:246-249, 1990, which is incorporated by reference in its entirety).

[12] = intact canine model, coronary artery occlusion followed by reperfusion

Compound: CN(CC(=O)O)C(=N)N [Cr, creatine, reference compound]
- ATP and CrP lost ([1]; isolated ischemic rabbit hearts, control treatment): more than 95%

Compound: NC1=NCCN1CC(=O)O [CCr, 1-carboxymethyl-2-iminoimidazolidine]
- protection of brain tissues from ischemic injury [2]: protected
- levels of ATP and CrP ([1]; isolated ischemic rabbit hearts): maintained high levels
- Nourin-1 released ([1]; treated hearts versus controls): significant reduction
- tissue damage ([3]; 600 mg/kg intravenous for 2 hours prior to removing and perfusing hearts in-vitro for two hours): did not induce tissue damage
- histology after 2 hours reperfusion (contraction bands, eosinophilic changes) ([3]; 600 mg/kg intravenous, versus control hearts): only occasional small foci of contraction bands and no significant eosinophilic changes
- protection (Nourin-1, ATP and CrP levels) ([3]; hearts perfused with drug, without preinjection): no protection was observed
- defibrillation during reperfusion ([4]; fed rats versus control rats): spontaneously defibrillated sooner
- reduction of myocardial ATP, exhaustion of high-energy phosphates, onset of rigor tension during cardiac ischemia ([4]; long-term feeding (up to 3 weeks) with 1%, rats and chickens): significantly delayed
- ATP depletion and onset of rigor ([4]; prior feeding to rats, ischemic isolated hearts): delayed ATP depletion and the onset of rigor
- number of hearts recovering mechanical function upon reperfusion ([4]; treated rats compared to controls): significantly higher
- cell damage compared to control hearts [5]: marked reduction in cell damage
- cardioprotective effect ([6]; 150 mg/kg): No effect
- cardioprotective effect ([6]; 300 mg/kg): strong cardioprotective effect
- cardioprotective effect ([6]; 600 mg/kg): strong cardioprotective effect
- results (restoration of cardiac function) [7]: Restoration
- defibrillation ([8]; bypass surgery model, untreated canines required external defibrillation): defibrillated spontaneously
- results (restoration of cardiac function) ([8]; ischemia time 1 hr): Restoration
- results (restoration of cardiac function) ([8]; ischemia time 3 hrs): Restoration
- results (restoration of cardiac function) [9]: Restoration
- ATP maintained, of normal non-ischemic levels [10, 12]: 85%
- CrP maintained, of normal non-ischemic levels [10, 12]: 97%
- loss of ATP [10, 12]: 15%
- loss of CrP [10, 12]: 3%
- results (restoration of cardiac function) ([10]; ischemia time 1 hr, canine, drug prior to ischemia): Restoration
- preservation of ATP ([10]; ischemic myocardium): over 85%
- inotropic or chronotropic effect [11]: no inotropic or chronotropic effect
